Measurements: PMC8333062, “Chemical tools for epichaperome-mediated interactome dysfunctions of the central nervous system” (Nature Communications, 2021)

Tests used:
[1] = system: epichaperome +ve (MDA-MB-468) tumors; assay: Small-animal PET, xenografted tumors; format: in vivo, mouse; settings: 48 h post-injection
Protocol: (§1) We opted for the use of xenografted MDA-MB-468 and ASPC1 tumors in mice (target-positive versus target-negative, respectively, with equal total HSP90 levels, Fig. 3b). Because PU-HZ151 rapidly distributes throughout the body (see Fig. 2a and further below), and taking in consideration the high concentration of chaperones in cells (>100 µM)[41], a bolus injection creates a rapid equilibrium mixture state. Subsequent to reaching an ‘equilibrium’ state throughout the body, PU-HZ151 then rapidly clears from plasma, which initiates a body-wide dilution state. Recording the differential concentration-time curves for PU-HZ151 in the two tumor types offers the relative dissociation rate constants, but most importantly, informs on probe’s epichaperome selectivity (Fig. 3a).
(§2) For subcutaneous xenografts, mice were anesthetized with 2% isoflurane (Baxter Healthcare) (2 l min^−1 medical air). […]
(§3) Orthotopic GBM xenografts in mice were established by injection of 5 × 10^5 cells in 2 μL PBS. […] PET data for each mouse was recorded using static scans of 15 min and acquired at the indicated times post injection. Quantification and %ID g^−1 values were calculated by manually drawing regions of interests in three different frames and determining the average values using ASI Pro VM™ MicroPET Analysis software (Siemens Medical Solutions, Knoxville, TX).

[2] = system: epichaperome -ve (ASPC1) tumors; assay: Small-animal PET, xenografted tumors; format: in vivo, mouse; settings: 48 h post-injection
Protocol: as §1, §2, §3

all the P450 enzymes = assay: Cytochrome P450 profiling, 1-aminobenzotriazole; format: in vitro ADME, human; settings: for % PU-HZ151 remaining: ABT
Protocol: (§4) To identify cytochrome P450 enzymes responsible for PU-HZ151’s metabolism in human liver microsomes the following procedure was followed. Phosphate buffer (100 mM, pH 7.4) was prepared monthly and stored at 4 °C. Frozen stock solutions of human liver microsomes (Life Technologies; Cat# HMMCPL) were used once after thawing and were not refrozen. NADPH stock solution (50 mM) in distilled water was prepared fresh daily. […] The stock solutions of these P450 inhibitors were prepared in DMSO. […] The concentration of the chemical inhibitors used in the assay were furafylline (10 μM), tranylcypromine (2 μM), ketoconazole (1 μM), troleandomycin (20 μM), orphenadrine (50 μM), montelukast (3 μM), sulfaphenazole (10 μM), benzylnirvanol (1 μM), quinidine (1 μM), and 1-aminobenzotriazole (1 mM) for all the P450 enzymes. Timing of the reactions was started following the addition of NADPH/magnesium chloride mix and PU-HZ151. Time-dependent chemical inhibitors (furafylline, troleandomycin, orphenadrine, and 1-aminobenzotriazole) were preincubated with human microsomes in the presence of NADPH and magnesium chloride for 15 min before the addition of PU-HZ151 and timing of reactions was started after addition of PU-HZ151. […] Following brief vortexing and centrifugation, a 200 µL aliquot of the supernatant was transferred to a tube, and 10 µL of haloperidol (1 µg mL^−1) as internal standard was added. Following brief vortexing and centrifugation, 50 µL of supernatant was added to a 96-well plate for subsequent LC-MS/MS analysis. PU-HZ151 was similarly tested as above in the absence of CYP inhibitors for comparative purposes. All samples were assayed in duplicate. […] This was similarly performed for incubations of PU-HZ151 performed in the absence of CYP inhibitor.

CYP2B6 = target: T1, CYP2B6 (Homo sapiens, UniProt P20813); assay: Cytochrome P450 profiling, orphenadrine; format: in vitro ADME; settings: for % PU-HZ151 remaining: Orphenadrine
T1 construct: tissue Life Technologies HMMCPL; host or cells: human liver microsomes
T1 sequence (P20813 1-491): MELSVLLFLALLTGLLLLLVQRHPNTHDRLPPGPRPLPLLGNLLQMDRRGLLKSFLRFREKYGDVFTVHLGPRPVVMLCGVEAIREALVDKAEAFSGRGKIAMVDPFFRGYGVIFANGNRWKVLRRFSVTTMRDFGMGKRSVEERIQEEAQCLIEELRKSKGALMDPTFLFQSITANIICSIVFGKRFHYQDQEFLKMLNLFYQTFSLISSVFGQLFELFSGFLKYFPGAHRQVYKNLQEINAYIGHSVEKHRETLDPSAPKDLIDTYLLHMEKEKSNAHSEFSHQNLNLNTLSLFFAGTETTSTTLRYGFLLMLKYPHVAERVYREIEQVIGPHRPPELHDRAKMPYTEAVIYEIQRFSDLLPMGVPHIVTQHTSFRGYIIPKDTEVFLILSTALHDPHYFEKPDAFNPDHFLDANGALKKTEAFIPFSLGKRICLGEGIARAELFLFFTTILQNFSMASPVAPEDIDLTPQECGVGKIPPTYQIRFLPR
Protocol: as §4

[3] = LC-MS/MS profile of brain and tumor extracts; settings: 1 h post-intravenous injection

CC(C)(C)CNCCn1c(Sc2cc3c(cc2I)OCO3)nc2c(N)ncnc21 [Compound 85]
tumor retention by PET [1]: clear retention and visualization of MDA-MB-468 tumors even at 48 h post-injection | tumor retention by PET [2]: no signal was noted in ASPC1 tumors | inhibition of PU-HZ151 metabolism (all the P450 enzymes; 1-aminobenzotriazole): 75% | % PU-HZ151 remaining (all the P450 enzymes; 15 min): 90.5% | % PU-HZ151 remaining (all the P450 enzymes; 30 min): 83.9% | % PU-HZ151 remaining (all the P450 enzymes; 60 min): 79.6% | % PU-HZ151 remaining (CYP2B6; 15 min): 62% | % PU-HZ151 remaining (CYP2B6; 30 min): 42.7% | % PU-HZ151 remaining (CYP2B6; 60 min): 25.6% | inhibition of PU-HZ151 metabolism (CYP2B6; orphenadrine): 10% | species detected in lesions and brain [3]: only the intact PU-HZ151 molecule
